Assay results taken from the NIST ThermoML archive (doi:10.1021/je049582g).

Test: cn = amount concentration of the nth substance listed, in mol/dm3
Conditions: 298 K, 101 kPa, Liquid, holographic interferometric technique

CC[C@H](C)[C@H](N)C(=O)O [2-amino-3-methylpentanoic acid] + O
Conditions | binary diffusion coefficient [m2/s]
c1 = 0.0101 | 7.61e-10
c1 = 0.0203 | 7.5e-10
c1 = 0.0301 | 7.39e-10
c1 = 0.0399 | 7.32e-10
c1 = 0.05 | 7.25e-10

NCC(=O)O [2-aminoacetic acid] + O
Conditions | binary diffusion coefficient [m2/s]
c1 = 0.1057 | 1.04e-09
c1 = 0.3056 | 1e-09
c1 = 0.5045 | 9.73e-10
c1 = 0.7064 | 9.57e-10
c1 = 0.9045 | 9.43e-10

NCCC(=O)O [3-aminopropanoic acid] + O
Conditions | binary diffusion coefficient [m2/s]
c1 = 0.0281 | 9.36e-10
c1 = 0.0288 | 9.35e-10
c1 = 0.0299 | 9.34e-10
c1 = 0.0344 | 9.33e-10
c1 = 0.111 | 9.18e-10
c1 = 0.5605 | 8.67e-10
c1 = 0.5886 | 8.68e-10
c1 = 1.123 | 8.18e-10
c1 = 1.766 | 7.79e-10
c1 = 2.34 | 7.52e-10
c1 = 2.665 | 7.4e-10
c1 = 3.008 | 7.2e-10
c1 = 3.931 | 6.63e-10
c1 = 4.543 | 6.25e-10
c1 = 5.419 | 5.6e-10

CC[C@@H](N)C(=O)O [(R)-(-)-α-aminobutyric acid] + O
Conditions | binary diffusion coefficient [m2/s]
c1 = 0.2 | 8e-10
c1 = 0.4 | 7.72e-10
c1 = 0.6 | 7.45e-10
c1 = 0.8 | 7.2e-10
c1 = 1 | 6.97e-10

C[C@H](N)C(=O)O [(S)-2-aminopropanoic acid] + O
Conditions | binary diffusion coefficient [m2/s]
c1 = 0.0997 | 9.04e-10
c1 = 0.2996 | 8.59e-10
c1 = 0.4996 | 8.34e-10
c1 = 0.7002 | 8.12e-10
c1 = 0.9006 | 7.92e-10

OC[C@H]1O[C@@](CO)(O[C@H]2O[C@H](CO)[C@@H](O)[C@H](O)[C@H]2O)[C@@H](O)[C@@H]1O [D-sucrose] + O
Conditions | binary diffusion coefficient [m2/s]
c1 = 0.1 | 4.89e-10
c1 = 0.3 | 4.27e-10
c1 = 0.5 | 3.67e-10
c1 = 0.7 | 3.06e-10

CC(N)C(=O)O (stereo not drawn) [DL-2-aminopropanoic acid] + O
Conditions | binary diffusion coefficient [m2/s]
c1 = 0.0271 | 9.11e-10
c1 = 0.0281 | 9.11e-10
c1 = 0.2233 | 8.84e-10
c1 = 0.4374 | 8.56e-10
c1 = 0.6786 | 8.27e-10
c1 = 0.9025 | 8.02e-10
c1 = 1.195 | 7.72e-10
c1 = 1.541 | 7.41e-10

N=C(N)NCCC[C@H](N)C(=O)O [L-arginine] + O
Conditions | binary diffusion coefficient [m2/s]
c1 = 0.1002 | 7.01e-10
c1 = 0.2 | 6.61e-10
c1 = 0.2949 | 6.36e-10
c1 = 0.4001 | 6.21e-10
c1 = 0.5 | 6.04e-10

N[C@@H](CO)C(=O)O [L-serine] + O
Conditions | binary diffusion coefficient [m2/s]
c1 = 0.01 | 9.16e-10
c1 = 0.0301 | 8.91e-10
c1 = 0.05 | 8.79e-10
c1 = 0.07 | 8.71e-10
c1 = 0.0902 | 8.65e-10

C[C@@H](O)[C@H](N)C(=O)O [L-threonine] + O
Conditions | binary diffusion coefficient [m2/s]
c1 = 0.1006 | 7.86e-10
c1 = 0.2002 | 7.58e-10
c1 = 0.2994 | 7.42e-10
c1 = 0.4002 | 7.25e-10
c1 = 0.5003 | 7.15e-10

CC(C)[C@H](N)C(=O)O [L-valine] + O
Conditions | binary diffusion coefficient [m2/s]
c1 = 0.1 | 7.12e-10
c1 = 0.2 | 6.79e-10
c1 = 0.2999 | 6.55e-10
c1 = 0.4 | 6.45e-10
c1 = 0.5001 | 6.33e-10

[Cl-].[K+] [potassium chloride] + O
Conditions | binary diffusion coefficient [m2/s]
c1 = 0.33 | 1.83e-10

NC(N)=O [urea] + O
Conditions | binary diffusion coefficient [m2/s]
c1 = 0.125 | 1.37e-09
c1 = 0.2475 | 1.36e-09
c1 = 0.5 | 1.34e-09
c1 = 0.75 | 1.33e-09
c1 = 0.9782 | 1.31e-09
c1 = 1 | 1.31e-09
c1 = 1.5 | 1.27e-09
c1 = 2 | 1.24e-09
c1 = 3 | 1.19e-09
c1 = 4 | 1.14e-09
